Common to all, as to assay: NCI tumour cell line growth inhibition, 48 h
Test [1] has as its system HS 578T breast.
Test [2] relates to NCI/ADR-RES ovarian.
Test [3] deals with HL-60(TB) leukemia.
In test [4] the test system is MDA-N.
The test system of test [5] is HOP-92 NSCLC.
Test [6] deals with SF-295 CNS.
Test [7] has as its system ACHN renal.
In test [8] the test system is OVCAR-8 ovarian.
Test [9] relates to SNB-19 CNS.
In test [10] the test system is NCI-H226 lung.
Test [11] has as its system SNB-75 CNS.
Test [12] deals with MDA-MB-435.
The subject of test [13] is EKVX NSCLC.
Test [14] has as its system HCT-116 colon.
The test system of test [15] is K-562 leukemia.

SMILES strings stand for the structures.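 Interpolation was linear, between the two tested concentrations surrounding the appropriate level; five concentrations were tested over 48 hours in 96-well plates. TGI is the concentration that stops growth completely.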

On to `CCC(=O)C(CCN1CCC2(CCCc3ccccc32)CC1)(c1ccccc1)c1ccccc1`, for which the TGI in [1] was determined as 7.02 µM; in test [2], 14.3 µM; in [3], 5.12 µM; in [4] it was 10.9 µM; in test [5], 4.03 µM; in test [6], 4.9 µM. Further, the TGI is 11.3 µM in [7]; 14 µM in test [8]; 20.6 µM in test [9]; 6.58 µM in test [10]; more than 27.2 µM in test [11]; 12.5 µM in [12]. For the same molecule, the TGI in test [13] was 17.6 µM; in test [14] it was 3.22 µM.
With `CC1=NC(=Cc2ccccc2O)C(=O)N1n1c(-c2ccccc2)nc2ccccc2c1=O`, the TGI is more than 100 µM in test [1]; 93.5 µM in [2]; more than 100 µM in test [3]; more than 100 µM in test [4]; more than 100 µM in test [5]; more than 100 µM in test [6]. The TGI in test [7], in [15], in [8], in [9], in [10] and in [11] was more than 100 µM each time. Also, the TGI in test [12], in test [13] and in test [14] was more than 100 µM each time.
As for `CCOC(=O)N1N=C(/C(C)=N/OC)C(C)S1=O` (stereo not given), the TGI in [1], in [2], in [3], in test [4], in test [5] and in test [6] was more than 100 µM throughout. The TGI in [7], in [15], in test [8], in test [9], in test [10] and in [11] was more than 100 µM in each case. Besides, the TGI in [12], in test [13] and in test [14] was more than 100 µM each time.
Take `CSC(=S)Nc1cccc(C)n1`: the TGI in test [1], in [2], in [3], in test [4], in test [5] and in test [6] was more than 100 µM each time. Also, the TGI in test [7], in test [15], in [8], in test [9], in [10] and in test [11] was more than 100 µM in each case. In addition, the TGI in test [12], in test [13] and in test [14] was more than 100 µM throughout.
For the molecule `CCCCc1ccc(-n2sc3ncc(C)cc3c2=O)cc1`, the TGI in [1] is more than 100 µM; in test [2], 72 µM; in test [3], 32.7 µM; in test [4], more than 100 µM; in [5], 87.5 µM; in test [6], more than 100 µM. The TGI in test [7] was more than 100 µM; in [15] it was more than 100 µM; in test [8], 51.1 µM; in [9] it was more than 100 µM; in test [10], more than 100 µM; in [11], more than 100 µM. Also, the results for the TGI in test [12], in test [13] and in [14] were more than 100 µM, 46.9 µM and more than 100 µM, respectively.
In the case of `Cc1cn(CCCCC2=NCCCN2)c(=O)[nH]c1=O`, the TGI in [1] is more than 60.5 µM; in [2], more than 67.5 µM; in test [3], more than 19.7 µM; in test [4] it was more than 100 µM; in test [5], 18.3 µM; in test [6] it was more than 65.5 µM. In addition, the TGI in [7] is more than 31 µM; in test [15] it was more than 37.2 µM; in test [8], more than 28.2 µM; in test [9] it was more than 66.2 µM; in test [10], more than 81.3 µM; in test [11], more than 28.6 µM. Further, the TGI in test [12] is more than 33.8 µM; in test [13], more than 42 µM; in test [14] it was more than 29.3 µM.
With `c1ccc2oc(-c3ccc(-c4nc5ccccc5o4)c4c3CC4)nc2c1`, the TGI in test [1], in [2], in [3], in test [4], in test [5] and in test [6] was more than 100 µM in each case. In addition, the TGI in test [7], in [15], in test [8], in test [9], in test [10] and in [11] was more than 100 µM each time. Besides, the TGI in test [12], in test [13] and in test [14] was more than 100 µM each time.
For `COC(=O)C(CCSC)NC(=O)CNC(=O)CSc1nnc(COc2ccc(Cl)cc2)n1-c1ccccc1` (stereo not given), the TGI was 53.1 µM in test [1]; more than 100 µM in test [2]; 38.3 µM in [3]; 32.7 µM in [4]; 32 µM in test [5]; 30.7 µM in test [7]. For the same molecule, the TGI in test [15] is more than 100 µM; in test [9], more than 100 µM; in test [10] it was 36.9 µM; in [11], 36.3 µM; in test [12], 37.9 µM; in [14] it was 30.5 µM.
For the molecule `N#Cc1nc(-c2ccco2)oc1N`, the TGI in [1], in test [2], in [3], in test [4], in [5] and in [6] was more than 10 µM each time. Moreover, the TGI in test [7], in test [15], in test [8], in [9], in test [10] and in [11] was more than 10 µM throughout. Moreover, the TGI in [12], in test [13] and in test [14] was more than 10 µM in each case.
Take `Oc1[nH]c2ccccc2c1N=NC(=S)Nc1ccccc1Cl`: the TGI in test [1] is 56.1 µM; in test [2], 3.48 µM; in test [3] it was 18.7 µM; in test [4], more than 100 µM; in [5] it was 56.2 µM; in test [6] it was 20.9 µM. For the same molecule, the TGI in test [7] was 17.2 µM; in test [15] it was 81.4 µM; in [8] it was 17.9 µM; in test [9] it was more than 100 µM; in test [10] it was 53 µM; in test [11], 16.1 µM. Besides, the TGI in [12] worked out at 57.5 µM; in test [13], 77.9 µM; in test [14], 11.8 µM.
With `O=[N+]([O-])c1ccc(C(=S)Nc2ccccc2)o1`, the TGI amounted to 32.7 µM in test [1]; 9.4 µM in test [2]; 6.35 µM in [3]; 9.53 µM in test [4]; 31.8 µM in test [5]; 15.5 µM in [6]. The TGI in [7] amounted to 6.66 µM; in test [15], 6.28 µM; in [8] it was 10.6 µM; in test [9], 17.3 µM; in test [10], 15 µM; in test [11], 30.4 µM. Besides, the results for the TGI in test [12], in test [13] and in [14] were 7.63 µM, 12.5 µM and 4.67 µM, respectively.
Consider `N#Cc1c2c(c(N)oc1=O)C(c1ccccc1)CC(=O)N2` (stereo not given), for which the TGI in [1], in test [2], in test [3], in [4], in [5] and in test [6] was more than 100 µM throughout. Further, the TGI in [7], in test [15], in [8], in [9], in test [10] and in test [11] was more than 100 µM each time. Besides, the TGI in [12], in test [13] and in [14] was more than 100 µM throughout.
Take `COc1ccc(OC)c(N(CN2C(=O)CCC2C(=O)O)C(C)=O)c1` (stereo not given): the TGI in test [1], in test [2], in [3], in [4], in test [5] and in test [6] was more than 100 µM in each case. In addition, the TGI in test [7], in test [15], in test [8], in test [9], in test [10] and in [11] was more than 100 µM in each case. The TGI in [12], in [13] and in [14] was more than 100 µM in each case.
As to `O=C1CSC2(CC(/C=C/c3cccc([N+](=O)[O-])c3)=NN2c2cccc(S(=O)(=O)O)c2)N1c1nc2ccccc2s1` (stereo not given), the TGI was more than 100 µM in test [1]; 70.1 µM in test [2]; 92.5 µM in [3]; 59.1 µM in [4]; 40.3 µM in test [5]; 94.6 µM in test [7]. For the same molecule, the TGI in [15] was more than 100 µM; in test [8], 30.7 µM; in test [9], 43.6 µM; in test [10], 77.5 µM; in [11] it was 40.7 µM; in test [12] it was 34.9 µM. The TGI in [13] and in [14] was more than 100 µM throughout.
For `COc1ccc(OC)c(CNc2ccc(C(=O)O)cc2)c1`, the TGI in test [1], in test [2], in [3], in test [4], in test [5] and in test [7] was more than 100 µM in each case. Besides, the TGI in test [15], in test [8], in test [9], in test [10], in test [11] and in [12] was more than 100 µM each time. Also, the TGI in test [13] and in test [14] was more than 100 µM throughout.
Consider `COc1ccc(N2C(=O)/C(=C\c3cc(OC)c(OC)c(OC)c3)SC2c2ccccc2)cc1` (stereo not given), for which the TGI in test [1], in test [2], in test [3], in [4], in test [5] and in test [6] was more than 100 µM throughout. In addition, the TGI in test [7], in test [15], in test [8], in test [9], in [10] and in [12] was more than 100 µM in each case. For the same molecule, the TGI in [13] and in test [14] was more than 100 µM throughout.
With `CC1(C)OCC([C@H]2O[C@@H](CC(=S)NCCCCCCCCCCCCNC(=S)C[C@H]3O[C@@H](C4COC(C)(C)O4)[C@H]4OC(C)(C)O[C@H]43)[C@H]3OC(C)(C)O[C@H]32)O1` (stereo not given in full), the TGI in test [1] is more than 100 µM; in test [2], 94.2 µM; in test [3] it was more than 100 µM; in [4] it was more than 100 µM; in test [5] it was more than 100 µM; in test [6], more than 100 µM. Moreover, the TGI in [7], in test [15], in test [8], in test [10], in test [11] and in test [12] was more than 100 µM each time. The TGI in test [13] and in test [14] was more than 100 µM each time.
Regarding `Cc1ccc2nc(N/N=C/c3sccc3C)cc(C)c2c1`, the TGI in test [1], in test [2], in [3], in test [4], in test [5] and in test [7] was more than 100 µM in each case. In addition, the TGI in test [15], in [8], in [9], in [10], in test [11] and in [12] was more than 100 µM in each case. Besides, the TGI in test [13] and in test [14] was more than 100 µM each time.
Consider `O=C1C(Cl)C2(CC(/C=C/c3ccccc3)=NN2c2cccc(S(=O)(=O)O)c2)N1c1nc2ccccc2s1` (stereo not given), for which the TGI in [1] is more than 100 µM; in [2], more than 100 µM; in test [3] it was 33.8 µM; in test [4], 46 µM; in test [5], 25.4 µM; in test [7] it was 30.9 µM. The TGI is 54.3 µM in test [15]; 25 µM in [8]; more than 100 µM in test [9]; 56.2 µM in [10]; 30.3 µM in test [11]; 36.1 µM in test [12]. Also, the TGI in [13] was 41 µM; in [14] it was 56.1 µM.
